Source: ChEMBL document CHEMBL1133908, “Novel 3-(2-adamantyl)pyrrolidines with potent activity against influenza A virus-identification of aminoadamantane derivatives bearing two pharmacophoric amine groups” (2001)
Converted amounts (≈) assume the structure as drawn.

Columns and labels:
MDCK [1] = assay: Minimum cytotoxic concentration required to cause a microscopically detectable alteration of normal cell morphology in madin-Darby canine kidney cells (MDCK); format: functional, Canis lupus familiaris
MDCK [2] = assay: Minimum inhibitory concentration required to reduce influenza A H2N2 virus induced cytopathogenicity by 50% in madin-Darby canine kidney cells (MDCK); format: functional; settings: Canis lupus familiaris
MDCK [3] = assay: Minimum inhibitory concentration required to reduce influenza A H3N2 (X31) virus induced cytopathogenicity by 50% in madin-Darby canine kidney cells (MDCK); format: functional; settings: Canis lupus familiaris

Row | Compound | MCC50 (MDCK [1]) | MIC50 (MDCK [2]) | MIC50 (MDCK [3])
1 | CCCN1CCC(C2C3CC4CC(C3)CC2C4)C1 (stereo unspecified) | 140.9 µM | > 28.2 µM | > 28.2 µM
2 | CN1CCC(C2C3CC4CC(C3)CC2C4)C1 (stereo unspecified) | >156.4 µM | 18.8 µM (≈ 4.12 µg/mL) | 18.8 µM (≈ 4.12 µg/mL)
3 | CCN1CCC(C2C3CC4CC(C3)CC2C4)C1 (stereo unspecified) | 148.2 µM | > 29.7 µM | > 29.7 µM
4 | CCN(CC)CCN1CCC(C2C3CC4CC(C3)CC2C4)C1=O (stereo unspecified) | 92 µM | 11.1 µM (≈ 3.54 µg/mL) | 11.1 µM (≈ 3.54 µg/mL)
5 | CN(C)CCN1CCC(C2C3CC4CC(C3)CC2C4)C1=O (stereo unspecified) | 122.4 µM | 14.7 µM (≈ 4.27 µg/mL) | 14.7 µM (≈ 4.27 µg/mL)
6 | C1CC(C2C3CC4CC(C3)CC2C4)CN1 (stereo unspecified) | 124.4 µM | 0.6 µM (≈ 0.123 µg/mL) | 5 µM (≈ 1.03 µg/mL)
7 | C1CCN(CCN2CCC(C3C4CC5CC(C4)CC3C5)C2)CC1 (stereo unspecified) | 14.6 µM | 1.7 µM (≈ 0.538 µg/mL) | 0.35 µM (≈ 0.111 µg/mL)
8 | CCN(CC)CCN1CCC(C2C3CC4CC(C3)CC2C4)C1 (stereo unspecified) | 74.5 µM | 8.9 µM (≈ 2.71 µg/mL) | > 14.9 µM
9 | CCCCN1CCC(C2C3CC4CC(C3)CC2C4)C1 (stereo unspecified) | 134.3 µM | > 26.9 µM | > 26.9 µM
10 | CN(C)CCN1CCC(C2C3CC4CC(C3)CC2C4)C1 (stereo unspecified) | 78.7 µM | 0.38 µM (≈ 0.105 µg/mL) | 9.4 µM (≈ 2.6 µg/mL)
11 | NC12CC3CC(CC(C3)C1)C2 [AMANTADINE] | >533.3 µM | 2.6 µM (≈ 0.393 µg/mL) | 12.8 µM (≈ 1.94 µg/mL)
12 | NC(=O)c1ncn([C@@H]2O[C@H](CO)[C@@H](O)[C@H]2O)n1 [RIBAVIRIN] | >1024.6 µM | 615 µM (≈ 150 µg/mL) | 123 µM (≈ 30 µg/mL)
